{"source": "patent US6610289B2", "about": "“Mutated herpes simplex virus type 1 thymidine kinases and uses thereof” (The Board of Trustees of the University of Arkansas, priority 1998, dated 2003)", "key": {"HCT-116 cells": {"test_system": "HCT-116 cells", "assay": "MTT cell viability, sensitivity to GCV killing, HCT-116 cell lines expressing HSV-1 TKs", "assay_type": "cell-based, human", "conditions": "HCT-116, GCV 0-5 μM, 4 days, FIG. 3B", "experimental": "Cells were plated in triplicate and exposed to 0, 0.05, 0.5 or 5 μM GCV for four days. Cell viabilities were determined using MTT dye. […] FIG. 3A: NIH3T3 cell lines, FIG. 3B: HCT-116 cell lines; parental cells (noTK, dark bands); Asp125TK (Asp-#, brick band); Glu-125TK (Glu-#, cross-hatch bands); Asn-125TK (Asn-#, gray bands); wild-type HSV-1 TK (WT-#, striped bands).\nA Moloney murine leukemia virus derived plasmid for the expression of HSV-TK, termed pLENTK, has been previously constructed (24). A unique BspEI-MluI restriction fragment within the HSV-TK sequence of pLENTK contains the Gln-125 mutation site. This fragment was removed from wild-type plasmid and replaced with the analogous fragments encoding each mutant. […] Along with wild-type HSV-1 TK plasmid, each mutant-TK plasmid was transfected individually into the murine fibroblast cell line, NIH 3T3, and the human colon tumor cell line, HCT-116, using lipofectin reagent (GIBCO/BRL) (2 μg plasmid, 14 μl lipid per 1×10^6 cells). Cells were maintained in RPMI 1640 media and selected with G418 (200 μg/ml for 2 weeks) as previously described (24). At least eight individual G418 resistant cell clones were picked and grown up for further characterization. Each clone was screened initially for growth inhibition by 25 μM GCV. Those clones that were sensitive were further analyzed for HSV-TK protein expression by Western blot analysis with a polyclonal, rabbit anti-HSV-TK antibody (a gift from Dr. Margaret Black). For each clone, cell numbers were normalized to 1×10^6, and equal protein loading was confirmed for each sample by gel staining. Blotted HSV-1 TK protein bands were visualized on film using ECL chromophore reagents (Amersham). For analysis of GCV sensitivity of different clones, NIH3T3 and HCT-116 cell sets were seeded in 96 well plates in 0.1 ml media (15,000 cells/well). The next day, a dose range of GCV (0.005 to 5 mM, n=3) was added in 0.1 ml media. After 4 days, MTT ([…]) was added for 1.5 hours, followed by DMSO solubilization of the cells and absorbance reading at 540 nm (25).\ncDNA for each mutant was incorporated into a Moloney murine leukemia virus plasmid (24). The plasmids for wild-type HSV-1 TK and each mutant were individually transfected into either NIH3T3 cells or the human colon tumor cell line, HCT-116. Following drug selection in G418, individual cell clones were evaluated for sensitivity to GCV and relative levels of HSV-1 TK expression. Using an HSV-1 TK antibody and extracts normalized by protein and cell number, the relative expression levels of HSV-1 TK in each cell clone were determined."}, "HSV-1 TK [1]": {"biological_target": "T1, HSV-1 TK (Human herpesvirus 1, UniProt P0DTH5, Q125D)", "T1 construct": "made in house; host or cells: E. coli BL21SY211 (pET-9a derived pET-TK plasmids)", "T1 sequence (P0DTH5 1-376 Q125D)": "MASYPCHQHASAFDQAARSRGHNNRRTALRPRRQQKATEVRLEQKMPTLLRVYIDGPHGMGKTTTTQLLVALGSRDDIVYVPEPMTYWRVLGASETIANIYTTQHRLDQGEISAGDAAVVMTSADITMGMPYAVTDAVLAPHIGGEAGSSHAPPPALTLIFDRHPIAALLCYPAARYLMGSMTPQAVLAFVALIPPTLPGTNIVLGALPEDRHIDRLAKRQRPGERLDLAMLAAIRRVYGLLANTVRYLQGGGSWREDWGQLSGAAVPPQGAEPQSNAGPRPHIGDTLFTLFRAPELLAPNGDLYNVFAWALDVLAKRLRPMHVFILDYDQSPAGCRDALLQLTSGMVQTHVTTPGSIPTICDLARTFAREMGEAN", "assay_type": "biochemical, herpes simplex virus type 1", "conditions": "substrate GCV", "experimental": "(§1) For determination of Km values of thymidine and GCV for the four enzymes, the filter binding assay was utilized. The basic reaction components were as above, and the following enzyme concentrations, substrate ranges and times were used under linear initial velocity conditions: for [^3H]thymidine: parent Gln-125TK: 0.1 μg TK, 0.1-4 μM, 10 min; Asn-125TK: 0.2 μg TK, 0.25-10 μM, 15 min; Asp-125TK: 4 μg TK, 0.1-2.5 μM, 30 min; Glu-125TK 0.5 μg TK, 0.5-2.5 μM, 15 min. For [^3H]GCV: parent Gln-125TK: 2 μg TK, 5-100 μM, 15 min; Asn-125TK: 0.6 μg TK, 0.5-15 μM, 15 min; Asp-125TK: Not determined; Glu-125TK 4 μg TK, 50-1000 μM, 25 min. Each reaction was done in triplicate. For calculation of kinetic constants, non-linear regression Michaelis-Menten analyses were done using PSI-PLOT version 5.0 (Poly Software International).\n(§2) Unlike the substrate screening assays presented in Table 1, linear velocity conditions for each enzyme and substrate were established prior to Km determinations."}, "HSV-1 TK [2]": {"test_system": "HSV-1 TK", "assay_type": "biochemical, herpes simplex virus type 1", "conditions": "substrate thymidine", "experimental": "as §1, §2"}, "HSV-1 TK [3]": {"test_system": "HSV-1 TK", "assay": "Substrate screen: phosphorylation of thymidine, TMP, GCV, ACV, dC, AZT by partially purified HSV-1 TKs", "assay_type": "biochemical, herpes simplex virus type 1", "experimental": "The activity of the purified HSV-1 TK was determined using the following standard reaction mixture for thymidine as a substrate (12): 3 μg of protein, 4 μM [^3H-methyl]thymidine (0.1 mCi/mmol), 20 mM potassium phosphate, pH 7.6, 1 mM DTT, 5 mM ATP, 5 mM MgCl2, 25 mM NaF, 40 mM KCl, and 0.5 mg/ml BSA in a total volume of 25 μl for 10 minutes at 37° C. To identify phosphorylated products, 20 μl of the reaction mixture was loaded onto a DE-81 filter and dried, washed once in 1 mM ammonium formate, twice more in 95% ethanol, and counted for radioactivity (12). Radioactivity was determined using an LKB 1214 Rackbeta liquid scintillation counter and corrected for background using controls with enzyme incubated in the absence of ATP. For TMPK activity, 20 μM [^3H-methyl]TMP was substituted for thymidine in the above assay mixture, and [^3H]TDP product was determined by separation from [^3H]TMP on thin layer PEI-cellulose plates developed in 0.35M LiCl (21). Amount of product converted to TDP was quantitated by scintillation counting of the excised TMP and TDP spots. The filter binding assay was used to quantitate the phosphorylation of [^3H]dC (200) μM and [^3H]AZT (200 μM) with the four enzymes. To compare relative enzymatic activities for [^3H]GCV (50 μM) and [^3H]ACV (50 μM), reactions were loaded onto small DE-52 columns packed in Pasteur pipettes as previously described (22).\nAs an initial screen for activity, each expressed HSV-1 TK enzyme was assayed for phosphorylation of the following substrates: thymidine (4 μM), TMP (20 μM), ACV (50 μM), GCV (50 μM), deoxycytidine (dC, 200 μM), or 3′-azido-2′,3′dideoxythymidine (AZT, 200 μM). Enzymatic conditions for optimal wild-type HSV-1 TK activities were utilized, thus results presented in Table 1 for each substrate were normalized to 100% values for comparative purposes. As expected, the wild-type Gln-125 HSV-1 TK efficiently phosphorylated each of these substrates. For each mutant, there was a striking decrease in their ability to phosphorylate pyrimidine nucleosides, and minimal TMPK activity for the TMP substrate."}}, "note": "Like-named read-outs stand apart in the source and are kept apart here.", "data": [{"substance": "Asp-125", "values": [{"measurement": "Dose dependent cell killing by GCV (cell viability, MTT)", "setting": "HCT-116 cells", "result": "little effect on cell viability"}, {"measurement": "Ganciclovir phosphorylation kinetics (in words)", "setting": "HSV-1 TK [1]", "result": "poorly phosphorylate ganciclovir, but with non-linear kinetics"}, {"measurement": "Ganciclovir phosphorylation kinetics (in words)", "setting": "HSV-1 TK [1]; listed as Asp-125TK", "result": "no linear velocity conditions could be established"}, {"measurement": "Change of kcat for thymidine relative to wild-type (in words)", "setting": "HSV-1 TK [2]", "result": "doubled"}, {"measurement": "Increase of Km for thymidine relative to wild-type enzyme", "setting": "HSV-1 TK [2]", "result": "~6000", "unit": "fold"}, {"measurement": "kcat thymidine", "setting": "HSV-1 TK [2]", "result": 0.11, "unit": "s⁻¹"}, {"measurement": "Km", "setting": "HSV-1 TK [2]; read-out: Km thymidine", "result": 6, "unit": "mM"}, {"measurement": "Product formation ACVMP", "setting": "HSV-1 TK [3]; substrate ACV 50 μM", "result": "14 % of wild-type Gln-125"}, {"measurement": "Product formation AZTMP", "setting": "HSV-1 TK [3]; substrate AZT 200 μM", "result": "8 % of wild-type Gln-125"}, {"measurement": "Product formation GCVMP", "setting": "HSV-1 TK [3]; substrate GCV 50 μM", "result": "0.7 % of wild-type Gln-125"}, {"measurement": "Product formation TDP (TMPK activity)", "setting": "HSV-1 TK [3]; substrate TMP 20 μM", "result": "4 % of wild-type Gln-125"}, {"measurement": "Product formation dCMP", "setting": "HSV-1 TK [3]; substrate dC 200 μM", "result": ">0.1 % of wild-type Gln-125"}, {"measurement": "Product formation TMP", "setting": "HSV-1 TK [3]; substrate thymidine 4 μM", "result": "0.5 % of wild-type Gln-125"}]}]}
